One block for each molecule: values may come before it.
What was measured:
[1] = molecular target: Syk in MV4-11 cells (Homo sapiens, UniProt P43405); assay: WC36B-streptavidin pull down assay with immunoblotting; type: binding
[2] = system: PM translocation of EGFP-Syk WT in Syk−/− DT40 cells; assay: Subcellular localization of EGFP-Syk WT in IgM-stimulated Syk-null DT40 cells; type: cell-based; conditions: 10 nM overnight
[3] = system: WC36B-binding cellular proteins of MV4-11 cells; assay: Mass spectrometry-based proteomics of WC36B-binding cellular proteins; design: species or system human; conditions: biotin as negative control
[4] = system: phosphorylation of ERK1/2 and STAT3/5 in RAS-mutated HL60 cells; assay: Western blot of IgG2-stimulated phosphorylation in HL-60 cells; type: cell-based; conditions: 5 μM
[5] = system: phosphorylation of Syk, ERK1/2 and STAT3/5 in entospletinib-resistant MV4-11 cells; conditions: 5 μM
[6] = system: HL60 cells; assay: XTT cell proliferation assay, HL-60 cells; type: cell-based
[7] = system: ZAP-70 phosphorylation in Jurkat T cells; assay: Western blot of ZAP-70 phosphorylation in Jurkat T cells; type: cell-based; conditions: 5 μM overnight, OKT3 stimulated

SMILES: Nc1ncnc2c1ncn2[C@@H]1O[C@H](COP(=O)(O)OP(=O)(O)OP(=O)(O)O)[C@@H](O)[C@H]1O [ATP]
competition with WC36B for Syk binding ([1]; WC36 10 μM, entospletinib 10 μM, ATP 1 mM): only WC36 was able to compete

SMILES: CS(=O)(=O)N1CCN(Cc2cc3nc(-c4cccc5[nH]ncc45)nc(N4CCOCC4)c3s2)CC1 [GDC-0941]
PM translocation of EGFP-Syk WT [2]: greatly suppressed

capture of Syk by streptavidin beads pulldown ([1]; MV4-11 cells, 5 μM, 24 h): targets Syk
SMILES: [N-]=[N+]=C(C(=O)NCCNC(=O)CCCC[C@H]1SC[C@H]2NC(=O)N[C@H]21)C(Nc1ncccn1)c1c[nH]c2ccccc12 (some centres unmarked) [WC36B]
proteins captured compared with biotin control [3]: Syk is the single major protein

SMILES: c1cn2cc(-c3ccc4cn[nH]c4c3)nc(Nc3ccc(N4CCOCC4)cc3)c2n1 [entospletinib]
suppression of phosphorylation of ERK1/2 and STAT3/5 [4]: could not suppress phosphorylation
inhibition of phosphorylation of Syk, ERK1/2 and STAT3/5 [5]: could not inhibit phosphorylation
suppression of proliferation (XTT assay) [6]: ineffective
inhibition of ZAP-70 phosphorylation [7]: significantly inhibited

Source: article PMC9898191 (Nature chemical biology, 2022)
